Source: patent publication US20250388529A1, “N-Substituted Phenylalkylamines and Their Use as Therapeutic Agents” (priority 2023, published 2025)
Values joined by “and” are separate entries in the source; they are usually repeats but may differ in a detail not shown here. Equal values may be shown once.

Legend:
[1] = system: wildtype mouse prefrontal cortex layer V pyramidal neurons; assay: Brain slice current clamp recording of membrane properties and action potential firing; format: cell-based
Description: Animals: Wildtype C57BL/6J mice were obtained from the Jackson Labs. Male and female pups, age postnatal day (P) 17-23, were used for the electrophysiological experiments. Animals were housed in the Unit for Laboratory Animal Medicine at the University of Michigan. All procedures were performed in accordance with the NIH and approved by the University of Michigan IACUC.
Brain Slice Preparation: Acute brain slices were prepared as described previously (Hull et al., Ann Clin Transl Neur., 2020; 7 (11): 2137-2149). Briefly, mice were anesthetized with isoflurane anesthesia and decapitated. Brains were carefully removed from the skull and placed in ice-cold carbogen-aerated slice solution containing (in mM): 110 sucrose, 62.5 NaCl, 2.5 KCl, 6 MgCl2, 1.25 KH2PO4, 26 NaHCO3, 0.5 CaCl2), 20 D-glucose, pH 7.35-7.40. Brains were blocked and slices were cut using a vibrating microtome (Electron Microscopy Sciences) in 250 μm thick coronal sections from prefrontal cortex. Slices were incubated in an aerated holding chamber containing slice solution for 30 minutes at room temperature and then incubated in 1:1 slice: artificial cerebrospinal solution (ACSF) for 30 minutes at 35° C. ACSF contained in mM (125 NaCl; 2.5 KCl; 1 MgCl2; 1.25 KH2PO4; 26 NaHCO3; 2 CaCl2); and 20 D-glucose (pH 7.35-7.40). Slices were then aerated in a holding chamber containing 100% ACSF for at least 30 min at room temperature before recording.
Action Potential Recording and Analysis: Individual brain slices were placed in an RC-26 recording chamber (Warner Instruments) and superfused with aerated ACSF at a flowrate of 2-3 mL/min equipped with an inline heater (Warner Instruments) to maintain the recording temperature at 33-35° C. Layer 5 pyramidal neurons were identified based on their large soma size, shape, and location using an AIR upright confocal microscope (Nikon) equipped with IR-DIC optics and a 40× water immersion objective. Only vertically oriented pyramidal cells were selected for recording. […] The junction potential was calculated to be 14.3 mV using the P-clamp junction potential calculator and all values presented in the study are uncorrected. Following break in at −94.3 mV in voltage clamp mode, the resting membrane potential was defined as the membrane potential in current clamp <10 s after initial break in for baseline or immediately after XOB perfusion. Repetitive action potential firing was elicited in whole-cell current clamp from the resting membrane potential in 1 s long current injections in 10 pA steps from −20 pA to +400 pA. There was a 1 s long 0 pA current injection between each sweep. Data were acquired at 20 kHz and were filtered at 10 kHz. Cells with an access resistance measured in voltage clamp >20 MΩ or RMP more depolarized than −64.3 mV were not used. Access resistance and pipette capacitance were compensated using bridge balance. Whole cell capacitance was measured using P-clamp whole cell capacitance compensation in voltage clamp with 10 mV depolarizing steps from −94.3 mV. Automated action potential (AP) quantification and analysis was performed using custom MATLAB (MathWorks) software. APs were defined as the voltage crossing 0 mV after a dV/dt>10 mV/ms, defined here as the AP threshold. Input resistance was calculated using Ohm's law with a −10 pA current injection from the resting membrane potential after 250 ms.

5-HT2A = 5-HT2A (Homo sapiens, UniProt P28223); assay: Gq-mediated calcium flux assay, Flp-In 293 T-Rex inducible cells (agonist and antagonist mode); format: cell-based; parameters: expressed in transfected cells
Chain of 5-HT2A (P28223 whole entry): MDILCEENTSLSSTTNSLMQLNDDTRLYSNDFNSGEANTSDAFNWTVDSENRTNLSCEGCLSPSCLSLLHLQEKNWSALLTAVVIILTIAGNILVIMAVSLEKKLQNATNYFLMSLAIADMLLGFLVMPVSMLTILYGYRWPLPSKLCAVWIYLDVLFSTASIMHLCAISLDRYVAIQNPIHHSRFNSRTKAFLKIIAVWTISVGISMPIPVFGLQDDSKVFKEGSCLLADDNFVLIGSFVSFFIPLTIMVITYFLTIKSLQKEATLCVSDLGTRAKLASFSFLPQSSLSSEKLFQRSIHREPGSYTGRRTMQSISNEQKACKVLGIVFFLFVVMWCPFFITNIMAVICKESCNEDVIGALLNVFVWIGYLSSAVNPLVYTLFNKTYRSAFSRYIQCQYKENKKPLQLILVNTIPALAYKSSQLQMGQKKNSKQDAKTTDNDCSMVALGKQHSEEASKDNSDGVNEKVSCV

## COc1cc(CCNCCCCCCOCCCCc2ccccc2)c(OC)cc1Br [XOB, N-(4-bromo-2,5-dimethoxyphenethyl)-6-(4-phenylbutoxy)hexan-1-amine]
[1]; 10 μM
  First AP Max dv/dt: 402.68±46.20 mV/ms and 402.68 mV/ms
  First AP Min dv/dt: −91.32±8.95 mV/ms
  First AP Peak Amplitude: 41.21±2.92 mV and 41.21 ± 2.29 mV
  First AP Threshold: −38.43±1.23 mV
  Input Resistance: 100.08±30.18 MΩ
  Max Firing Rate @ 300 pA: 12.25 ± 1.53 Hz
  Max Firing Rate @ 400 pA: 14±1.82 Hz
  Resting Vm: −63.25±1.15 mV
  Spike Width: 0.76 ± 0.06 ms
[1]; 10 μM vs baseline
  depolarization of the resting membrane potential: +8.45±1.15 mV
  reduction in maximum firing frequency at 400 pA current injections: ~12 Hz
5-HT2A; agonist mode, up to 10 μM
  agonist activity at 5-HT2A: little to no measurable agonist activity
5-HT2A; antagonist mode, 3.2 nM 5-HT, read-out: IC50, antagonism at 5-HT2A
  IC50: 1300 nM
5-HT2A; antagonist mode, read-out: EC50, antagonizes 5-HT2A
  EC50: 1300 nM
